Earlier results in patent US6630442B1, “Reparatives for chemosurgery and laser (thermal) therapy” (priority 1997, dated 2003).

Tests used:
cells = conditions: in vitro
granulating wounds = conditions: applied to granulating wounds
[1] = test system: partial thickness burns or split thickness epidermal burns; conditions: mixed with topical creams, applied twice daily
[2] = test system: lipid peroxidation in tissues; conditions: tissues of vitamin E deficient chicks
[3] = test system: skin damage by ultraviolet irradiation
[4] = test system: acute damage to the skin by sunburn induced by ultraviolet irradiation

For “EGF: Epidermal growth factor is a 53 amino acid polypeptide which stimulates messenger RNA, DNA and protein synthesis (NSDSECPLSHDGYCLHDGVCMYIEALDKYACNCVVGYIGERCQYRDLKWWELR; Epidermal growth factor; UniProt P01133 971-1023, looked up)”, the “exposure time needed to yield a mitogenic signal” value (cells) is listed as “about five hours”, the “concentrations of wound DNA and collagen hydroxyproline” value (granulating wounds) is listed as “increase both the concentrations of DNA associated with cutaneous injury and of collagen hydroxyproline” and the “healing process of wounds” value [1] is listed as “highly significant increase in the healing process”.
In the case of `C[Se]CC[C@H](N)C(=O)O` [selenomethionine], the “number of CD4+ T-cells in the reticular dermis of psoriatic lesions” value (psoriasis; human, in vivo) is given as “statistically significant increase”, the “skin levels of selenium dependent glutathione peroxidase” value (psoriasis; normal and psoriatic skin) is given as “unchanged” and the “increase in blood selenium post treatment” value (psoriasis; psoriasis patients with normal pretreatment selenium blood levels) is given as 40%. For the same compound, the “in vivo lipid peroxidation” value [2] was “inhibits in vivo lipid peroxidation”, the “skin damage by ultraviolet irradiation (inflammation and pigmentation)” value ([3]; mice treated with selenomethionine) was “significantly less skin damage by ultraviolet irradiation” and the “onset and incidence of skin cancers” value ([3]; mice treated with selenomethionine, UV irradiation) was “later onset and lesser incidence of skin cancers”. The selenium toxicity ([3]; mouse, in vivo, po) was “no evidence of selenium toxicity”, the “concentration of selenium in skin in areas of topical application” value ([3]; topical lotion versus comparable oral doses) was “greater than those of the experimental animals given comparable oral doses” and the “protection against acute UV damage to the skin, measured by the minimal erythema dose” value ([4]; eight women, topical lotion 0.002%, 0.02% and 0.05%, solar ultraviolet simulator) was “effective in protecting against acute UV damage to the skin”. For the same compound, the “plasma levels of selenium” value ([4]; volunteers after topical selenomethionine) was “remained unchanged”.
For (−)epigallo catechin gallate [EGCG], the hydrogen peroxide formation (human leukocytes) is listed as “inhibits hydrogen peroxide formation”.
